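Growth conditions: 96-well plates. Treatment: test compound, 48 hours, 5 concentrations. Analysis: linear interpolation between bracketing concentrations; unreached endpoints set to highest concentration. GI50: concentration for 50% inhibition of growth. TGI denotes the concentration required for complete inhibition of growth.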
Tests used:
Assay in all cases: NCI-60 cell line screen, 48 h
786-0 renal = system: 786-0 renal
A498 renal = system: A498 renal
A549 NSCLC = system: A549 NSCLC
ACHN renal = system: ACHN renal
BT-549 breast = system: BT-549 breast
CAKI-1 renal = system: CAKI-1 renal
CCRF-CEM leukemia = system: CCRF-CEM leukemia
COLO 205 colon = system: COLO 205 colon
DU-145 prostate = system: DU-145 prostate
EKVX NSCLC = system: EKVX NSCLC
HCT-116 colon = system: HCT-116 colon
HCT-15 colon = system: HCT-15 colon
HL-60(TB) leukemia = system: HL-60(TB) leukemia
HOP-62 NSCLC = system: HOP-62 NSCLC
HOP-92 NSCLC = system: HOP-92 NSCLC
HS 578T breast = system: HS 578T breast
HT29 colon = system: HT29 colon
IGROV1 ovarian = system: IGROV1 ovarian
K-562 leukemia = system: K-562 leukemia
KM12 colon = system: KM12 colon
LOX IMVI melanoma = system: LOX IMVI melanoma
M14 melanoma = system: M14 melanoma
MALME-3M melanoma = system: MALME-3M melanoma
MCF7 breast = system: MCF7 breast
MDA-MB-231 breast = system: MDA-MB-231 breast
MDA-MB-435 = system: MDA-MB-435
MDA-N = system: MDA-N
MOLT-4 leukemia = system: MOLT-4 leukemia
NCI-H226 lung = system: NCI-H226 lung
NCI-H23 lung = system: NCI-H23 lung
NCI-H460 lung = system: NCI-H460 lung
NCI-H522 lung = system: NCI-H522 lung
NCI/ADR-RES ovarian = system: NCI/ADR-RES ovarian
OVCAR-3 ovarian = system: OVCAR-3 ovarian
OVCAR-4 ovarian = system: OVCAR-4 ovarian
OVCAR-8 ovarian = system: OVCAR-8 ovarian
PC-3 prostate = system: PC-3 prostate
RXF 393 renal = system: RXF 393 renal
SF-268 CNS = system: SF-268 CNS
SF-295 CNS = system: SF-295 CNS
SF-539 CNS = system: SF-539 CNS
SK-MEL-2 melanoma = system: SK-MEL-2 melanoma
SK-MEL-5 melanoma = system: SK-MEL-5 melanoma
SK-OV-3 ovarian = system: SK-OV-3 ovarian
SN12C renal = system: SN12C renal
SNB-19 CNS = system: SNB-19 CNS
SNB-75 CNS = system: SNB-75 CNS
SW-620 colon = system: SW-620 colon
T-47D breast = system: T-47D breast
TK-10 renal = system: TK-10 renal
U251 CNS = system: U251 CNS
UACC-257 melanoma = system: UACC-257 melanoma
UACC-62 melanoma = system: UACC-62 melanoma
UO-31 renal = system: UO-31 renal
HCC-2998 colon = system: HCC-2998 colon
OVCAR-5 ovarian = system: OVCAR-5 ovarian
RPMI-8226 leukemia = system: RPMI-8226 leukemia
SK-MEL-28 melanoma = system: SK-MEL-28 melanoma

## Cc1c(CNc2ccc(Cl)c(C(=O)NC(CC(=O)O)C(=O)O)c2)ccc2nc(N)nc(N)c12 (stereo unspecified)
786-0 renal
  TGI: > 1000 µM
A498 renal
  GI50: 24.9 µM
  TGI: 680 µM
A549 NSCLC
  TGI: > 1000 µM
ACHN renal
  TGI: > 1000 µM
BT-549 breast
  GI50: 666 µM
  TGI: > 1000 µM
CAKI-1 renal
  GI50: 0.617 µM
  TGI: > 1000 µM
CCRF-CEM leukemia
  TGI: > 1000 µM
COLO 205 colon
  GI50: 114 µM
  TGI: > 1000 µM
DU-145 prostate
  GI50: 0.594 µM
  TGI: > 1000 µM
EKVX NSCLC
  GI50: 284 µM
  TGI: > 1000 µM
HCT-116 colon
  TGI: > 1000 µM
HCT-15 colon
  TGI: > 1000 µM
HL-60(TB) leukemia
  TGI: > 1000 µM
HOP-62 NSCLC
  GI50: 0.557 µM
HOP-92 NSCLC
  GI50: 288 µM
  TGI: > 1000 µM
HS 578T breast
  TGI: > 1000 µM
HT29 colon
  TGI: > 1000 µM
IGROV1 ovarian
  GI50: 50.4 µM
  TGI: 232 µM
K-562 leukemia
  TGI: > 1000 µM
KM12 colon
  TGI: > 1000 µM
LOX IMVI melanoma
  TGI: > 1000 µM
M14 melanoma
  TGI: > 1000 µM
MALME-3M melanoma
  TGI: 692 µM
MCF7 breast
  TGI: > 1000 µM
MDA-MB-231 breast
  GI50: > 1000 µM
  TGI: > 1000 µM
MDA-MB-435
  TGI: > 1000 µM
MDA-N
  TGI: > 1000 µM
MOLT-4 leukemia
  TGI: > 1000 µM
NCI-H226 lung
  GI50: > 1000 µM
  TGI: > 1000 µM
NCI-H23 lung
  GI50: 0.357 µM
  TGI: > 1000 µM
NCI-H460 lung
  TGI: 323 µM
NCI-H522 lung
  GI50: 211 µM
  TGI: 682 µM
NCI/ADR-RES ovarian
  TGI: > 1000 µM
OVCAR-3 ovarian
  GI50: 16.8 µM
  TGI: > 1000 µM
OVCAR-4 ovarian
  GI50: 265 µM
  TGI: > 1000 µM
OVCAR-8 ovarian
  TGI: > 1000 µM
PC-3 prostate
  GI50: < 0.01 µM
  TGI: > 1000 µM
RXF 393 renal
  GI50: > 1000 µM
  TGI: > 1000 µM
SF-268 CNS
  TGI: > 1000 µM
SF-295 CNS
  TGI: > 1000 µM
SF-539 CNS
  GI50: 0.446 µM
  TGI: > 1000 µM
SK-MEL-2 melanoma
  GI50: > 1000 µM
  TGI: > 1000 µM
SK-MEL-5 melanoma
  GI50: 0.36 µM
  TGI: > 1000 µM
SK-OV-3 ovarian
  GI50: 800 µM
  TGI: > 1000 µM
SN12C renal
  TGI: > 1000 µM
SNB-19 CNS
  GI50: 0.382 µM
  TGI: > 1000 µM
SNB-75 CNS
  GI50: 122 µM
  TGI: > 1000 µM
SW-620 colon
  TGI: > 1000 µM
T-47D breast
  GI50: > 1000 µM
  TGI: > 1000 µM
TK-10 renal
  GI50: 363 µM
  TGI: > 1000 µM
U251 CNS
  GI50: 75.8 µM
  TGI: > 1000 µM
UACC-257 melanoma
  GI50: 2.97 µM
  TGI: > 1000 µM
UACC-62 melanoma
  TGI: > 1000 µM
UO-31 renal
  GI50: 1.86 µM
  TGI: > 1000 µM

## CCCC(Sc1nc(N)nc2nc[nH]c12)C(=O)O (stereo unspecified)
786-0 renal
  TGI: > 100 µM
A498 renal
  TGI: > 100 µM
A549 NSCLC
  TGI: > 100 µM
ACHN renal
  TGI: > 100 µM
BT-549 breast
  TGI: > 100 µM
CAKI-1 renal
  TGI: > 100 µM
CCRF-CEM leukemia
  TGI: > 100 µM
COLO 205 colon
  TGI: > 100 µM
DU-145 prostate
  TGI: > 100 µM
HCC-2998 colon
  TGI: 76.9 µM
HCT-116 colon
  TGI: > 100 µM
HCT-15 colon
  TGI: > 100 µM
HL-60(TB) leukemia
  TGI: > 100 µM
HOP-62 NSCLC
  TGI: > 100 µM
HOP-92 NSCLC
  TGI: > 100 µM
HS 578T breast
  TGI: > 100 µM
HT29 colon
  TGI: > 100 µM
IGROV1 ovarian
  TGI: > 100 µM
K-562 leukemia
  TGI: > 100 µM
KM12 colon
  TGI: > 100 µM
LOX IMVI melanoma
  TGI: > 100 µM
M14 melanoma
  TGI: > 100 µM
MALME-3M melanoma
  TGI: > 100 µM
MCF7 breast
  TGI: > 100 µM
MDA-MB-231 breast
  TGI: > 100 µM
MDA-MB-435
  TGI: > 100 µM
MDA-N
  TGI: > 100 µM
MOLT-4 leukemia
  TGI: > 100 µM
NCI-H226 lung
  TGI: > 100 µM
NCI-H23 lung
  TGI: > 100 µM
NCI-H460 lung
  TGI: > 100 µM
NCI-H522 lung
  TGI: > 100 µM
NCI/ADR-RES ovarian
  TGI: > 100 µM
OVCAR-3 ovarian
  TGI: > 100 µM
OVCAR-4 ovarian
  TGI: > 100 µM
OVCAR-5 ovarian
  TGI: > 100 µM
OVCAR-8 ovarian
  TGI: > 100 µM
PC-3 prostate
  TGI: > 100 µM
RPMI-8226 leukemia
  TGI: > 100 µM
RXF 393 renal
  TGI: > 100 µM
SF-268 CNS
  TGI: > 100 µM
SF-295 CNS
  TGI: > 100 µM
SK-MEL-2 melanoma
  TGI: > 100 µM
SK-MEL-28 melanoma
  TGI: > 100 µM
SK-MEL-5 melanoma
  TGI: > 100 µM
SK-OV-3 ovarian
  TGI: > 100 µM
SN12C renal
  TGI: > 100 µM
SNB-19 CNS
  TGI: > 100 µM
SNB-75 CNS
  TGI: > 100 µM
SW-620 colon
  TGI: > 100 µM
T-47D breast
  TGI: > 100 µM
TK-10 renal
  TGI: 88 µM
U251 CNS
  TGI: > 100 µM
UACC-257 melanoma
  TGI: > 100 µM
UACC-62 melanoma
  TGI: > 100 µM
UO-31 renal
  TGI: > 100 µM

## Cc1oc2nc1C(=O)NCc1nc(cs1)C(=O)N[C@H](C(C)C)c1nc(cs1)C(=O)N[C@H]2C
786-0 renal
  TGI: > 100 µM
A498 renal
  TGI: > 100 µM
A549 NSCLC
  TGI: > 100 µM
ACHN renal
  TGI: > 100 µM
BT-549 breast
  TGI: > 100 µM
CAKI-1 renal
  TGI: > 100 µM
CCRF-CEM leukemia
  TGI: > 100 µM
COLO 205 colon
  TGI: > 100 µM
DU-145 prostate
  TGI: > 100 µM
EKVX NSCLC
  TGI: > 100 µM
HCC-2998 colon
  TGI: > 100 µM
HCT-116 colon
  TGI: > 100 µM
HCT-15 colon
  TGI: > 100 µM
HOP-62 NSCLC
  TGI: > 100 µM
HOP-92 NSCLC
  TGI: > 100 µM
HS 578T breast
  TGI: > 100 µM
HT29 colon
  TGI: > 100 µM
IGROV1 ovarian
  TGI: > 100 µM
K-562 leukemia
  TGI: > 100 µM
KM12 colon
  TGI: > 100 µM
M14 melanoma
  TGI: > 100 µM
MALME-3M melanoma
  TGI: > 100 µM
MCF7 breast
  TGI: > 100 µM
MDA-MB-231 breast
  TGI: > 100 µM
MDA-MB-435
  TGI: > 100 µM
MDA-N
  TGI: > 100 µM
MOLT-4 leukemia
  TGI: > 100 µM
NCI-H226 lung
  TGI: > 100 µM
NCI-H23 lung
  TGI: > 100 µM
NCI-H460 lung
  TGI: > 100 µM
NCI-H522 lung
  TGI: 87.4 µM
NCI/ADR-RES ovarian
  TGI: > 100 µM
OVCAR-3 ovarian
  TGI: > 100 µM
OVCAR-4 ovarian
  TGI: > 100 µM
OVCAR-5 ovarian
  TGI: > 100 µM
OVCAR-8 ovarian
  TGI: > 100 µM
PC-3 prostate
  TGI: > 100 µM
RPMI-8226 leukemia
  TGI: 54.4 µM
RXF 393 renal
  TGI: > 100 µM
SF-268 CNS
  TGI: > 100 µM
SF-295 CNS
  TGI: 99.4 µM
SF-539 CNS
  TGI: > 100 µM
SK-MEL-28 melanoma
  TGI: > 100 µM
SK-MEL-5 melanoma
  TGI: > 100 µM
SK-OV-3 ovarian
  TGI: > 100 µM
SN12C renal
  TGI: > 100 µM
SNB-19 CNS
  TGI: > 100 µM
SNB-75 CNS
  TGI: > 100 µM
SW-620 colon
  TGI: > 100 µM
T-47D breast
  TGI: > 100 µM
U251 CNS
  TGI: > 100 µM
UACC-257 melanoma
  TGI: > 100 µM
UACC-62 melanoma
  TGI: > 100 µM
UO-31 renal
  TGI: > 100 µM

From PubChem BioAssay (NCI)
